The target in data set [1] is T1, F508delCFTR (Homo sapiens, UniProt P13569, DEL508-508). Put plainly: Cell Surface Expression-Horse Radish Peroxidase (CSE-HRP) assay. The format is cell-based. Also noted: expressed in transfected cells; host or cells: CFBE41o- human lung derived epithelial cell line, doxycycline-inducible. Particulars: CFBE4lo-F508delCFTR-HRP cells; for EC50: 18-24 hours at 33° C., 8-point curve, highest concentration 20 μM, luminescence readout; for Emax: maximum % activity at any tested concentration, normalized to on-plate positive control (3 μM Example 1). Summed up:
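Following 18-24 h compound exposure at 33° C. Expression was doxycycline-induced beforehand. % activity versus DMSO and a 3 μM corrector control gave maximum activity and EC50 from a variable-Hill sigmoidal fit.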

The subject of data set [2] is CYP3A4. Put plainly: CYP3A4 induction in primary human hepatocytes (mRNA, RT-PCR). Conditions: test compounds 10 μM, 48 hours, % of response of positive control (Rifampin 10 μM).
In data set [3] the target is T1, F508delCFTR. Put plainly: Transepithelial Clamp Circuit (TECC-24) conductance assay on primary human bronchial epithelial cells (hBE-TECC). It is filed as cell-based. Also noted: cells isolated from CF patients with the homozygous mutation; endogenous in cells; host or cells: primary human bronchial epithelial (hBE) cells from F508del/F508del CF patients. Particulars: for EC50: primary hBE cells from F508del/F508delCFTR patients, corrector 18-24 hours at 37° C., equivalent short circuit current (Ieq), with control potentiator 1 μM; for Emax: relative to positive control (3 μM Example 1 coupled with control potentiator = 100%), primary hBE F508del/F508del cells, read-out: Maximum % activity (%). The text has this:
Transepithelial Clamp Circuit on Human Bronchial Epithelial Cells Conductance Assay:
A cell based assay using the primary human bronchial epithelial cells (hBE) was used as a secondary assay to test novel F508delCFTR correctors for their activity on primary hBE cells with F508del/F508del CFTR mutation. The assay used a TECC-24 (Transepithelial Clamp Circuit for 24 wells) instrument that measures the functionality of the mutated channel by measuring the equivalent short circuit current (Ieq) generated by the polarized epithelial cells. The instrument works by measuring the transepithelial potential difference (Vt) and transepithelial resistance (Rt) in an open circuit format, and the Ieq is calculated by using Ohms law (Ieq=Vt/Rt). The assay was run in a 24-well format and all 24-wells were measured at the same time point giving a higher throughput for this assay.
Primary human bronchial epithelial (hBE) cells from F508del/F508delCFTR patients were expanded from 1×10^6 to 250×10^6 cells (Neuberger T, Burton B, Clark H and VanGoor F; Cystic Fibrosis, Methods in Mole Biol 741; eds. Amaral M D and Kunzelmann K, 2011). For this purpose, cells isolated from CF patients with the homozygous mutation were seeded onto 24 well Corning (Cat #3378) filter plates that were coated with 3T3 conditioned media and grown at an air-liquid interface for 35 days using an Ultroser® G supplemented differentiation media. Apical surface mucus was removed 72 hours before the experiment using 3 mM dithiothreitol (DTT) in phosphate buffered saline (PBS). The apical surface was washed again 24 hours before the experiment using PBS. The cells were incubated with the desired dose response of the corrector compounds 18-24 hours at 37° C., 5% CO2. The corrector compounds are only added on the basolateral side of the epithelial cells.
On the day of measuring the corrector activity on the TECC, the cells were switched into a bicarbonate and serum free F-12 Coon's medium and allowed to equilibrate for 90 minutes in a CO2 free incubator. At the time of measurement, the apical and basolateral sides of the filter were bathed with the F-12 Coon's modification media (with 20 mM 4-(2-hydroxyethyl)-1-piperazineethanesulfonic acid (HEPES), pH 7.4 (using 1 M tris(hydroxymethyl)aminormethane (Tris)), and the measurements were made at 36.5° C. Transepithelial voltage (Vt) and transepithelial resistance (Rt) were measured using a 24 channel transepithelial current clamp (TECC-24). Current responses to the sequential addition of benzamil (apical 6 μM addition; for inhibiting epithelial ENaC channel), forskolin (apical and basolateral 10 μM addition; for activating the CFTR channel), control potentiator (N-(3-carbamoyl-5,5,7,7-tetramethyl-4,7-dihydro-5H-thieno[2,3-c]pyran-2-yl)-1H-pyrazole-5-carboxamide; apical and basolateral 1 μM addition; for potentiating the CFTR channel) and bumetanide (basolateral 20 μM addition; for inhibiting the Na:2Cl:K co-transporter, an indirect measure of inhibiting the Cl-secretion driven by CFTR channel) were measured.
All plates contained negative controls (dimethyl sulfoxide, DMSO) which coupled with the control potentiator (N-(3-carbamoyl-5,5,7,7-tetramethyl-4,7-dihydro-5H-thieno[2,3-c]pyran-2-yl)-1H-pyrazole-5-carboxamide) sets the null response and positive controls (3 μM of 3-[(2R,4R)-4-({[1-(2,2-difluoro-1,3-benzodioxol-5-yl)cyclopropyl]carbonyl}amino)-7-methoxy-3,4-dihydro-2H-chromen-2-yl]benzoic acid) coupled with the control potentiator sets the 100% response to measure the correction of the mutated CFTR channel. The maximum percent activity is reported relative to the positive control value.
The % activity measured at each of the 6 test concentrations of the test compound was normalized to the on-plate positive control using the following formula: % activity=[(test compound response−DMSO response)/(positive control response−DMSO response)]*100 […]

The text below walks through data of US9642831B2, “Substituted chromanes and method of use” (AbbVie S.á.r.l., priority 2014, dated 2017).

T1 sequence (P13569 with tags, fused parts or gaps DEL508-508): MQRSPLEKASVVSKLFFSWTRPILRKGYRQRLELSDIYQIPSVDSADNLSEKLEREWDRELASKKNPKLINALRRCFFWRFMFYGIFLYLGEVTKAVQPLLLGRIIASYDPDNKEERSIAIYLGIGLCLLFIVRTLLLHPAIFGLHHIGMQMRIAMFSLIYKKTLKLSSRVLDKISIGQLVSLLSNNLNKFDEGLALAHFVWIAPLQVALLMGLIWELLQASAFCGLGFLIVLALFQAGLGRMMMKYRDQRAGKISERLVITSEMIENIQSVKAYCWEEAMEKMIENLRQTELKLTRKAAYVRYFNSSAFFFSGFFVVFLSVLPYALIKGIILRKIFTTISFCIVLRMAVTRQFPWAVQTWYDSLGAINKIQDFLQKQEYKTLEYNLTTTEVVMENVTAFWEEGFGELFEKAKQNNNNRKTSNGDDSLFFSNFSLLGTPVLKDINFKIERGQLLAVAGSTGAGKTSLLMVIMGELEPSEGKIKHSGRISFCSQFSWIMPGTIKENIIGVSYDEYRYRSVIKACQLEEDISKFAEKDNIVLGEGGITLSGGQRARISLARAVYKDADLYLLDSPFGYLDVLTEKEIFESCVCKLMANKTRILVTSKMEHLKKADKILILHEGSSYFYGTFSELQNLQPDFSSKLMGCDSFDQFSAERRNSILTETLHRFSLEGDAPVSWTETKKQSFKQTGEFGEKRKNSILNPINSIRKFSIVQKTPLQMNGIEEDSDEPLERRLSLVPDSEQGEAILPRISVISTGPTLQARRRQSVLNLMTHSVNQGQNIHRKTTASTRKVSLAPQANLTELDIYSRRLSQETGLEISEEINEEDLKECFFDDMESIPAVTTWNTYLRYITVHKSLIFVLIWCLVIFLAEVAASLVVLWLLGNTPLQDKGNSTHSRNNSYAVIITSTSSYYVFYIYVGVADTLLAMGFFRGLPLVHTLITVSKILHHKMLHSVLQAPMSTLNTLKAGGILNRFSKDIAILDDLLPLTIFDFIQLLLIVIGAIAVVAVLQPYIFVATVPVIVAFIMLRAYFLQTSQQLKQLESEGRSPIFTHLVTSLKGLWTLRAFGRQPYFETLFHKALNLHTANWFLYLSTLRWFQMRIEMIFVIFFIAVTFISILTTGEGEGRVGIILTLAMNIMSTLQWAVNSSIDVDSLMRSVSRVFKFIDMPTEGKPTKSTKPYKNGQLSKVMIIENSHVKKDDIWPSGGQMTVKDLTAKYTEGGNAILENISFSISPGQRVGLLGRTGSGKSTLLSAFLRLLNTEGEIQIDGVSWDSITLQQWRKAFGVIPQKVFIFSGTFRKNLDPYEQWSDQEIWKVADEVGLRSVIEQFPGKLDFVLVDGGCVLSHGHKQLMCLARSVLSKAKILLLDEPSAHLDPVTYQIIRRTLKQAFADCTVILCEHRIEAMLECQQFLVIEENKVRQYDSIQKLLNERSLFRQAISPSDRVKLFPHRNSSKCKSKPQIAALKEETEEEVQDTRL

With `COc1ccc2c(n1)O[C@@H](c1cccc(C(=O)O)c1)C[C@H]2NC(=O)C1(c2ccc3c(c2)OC(F)(F)O3)CC1` (racemic) [Example 28, rac-3-[(2R,4R)-4-({[1-(2,2-difluoro-1,3-benzodioxol-5-yl)cyclopropyl]carbonyl}amino)-7-methoxy-3,4-dihydro-2H-pyrano[2,3-b]pyridin-2-yl]benzoic acid], the values for the EC50 in data set [1] and in data set [3] were 3240 nM and 3400 nM, respectively. For the same molecule, the Emax was 98% in data set [1] and 51% in data set [3]. In data set [2], the “CYP3A4 Hepatocytes mRNA % of positive control” value (“CYP3A4 Hepatocytes mRNA %” below) stood at 9.41%.
On the same counts, the results for `COc1ccc2c(c1)O[C@@H](c1cccc(C(=O)O)c1)C[C@H]2NC(=O)C1(c2ccc3c(c2)OC(F)(F)O3)CC1` [Example 1, 3-[(2R,4R)-4-({[1-(2,2-difluoro-1,3-benzodioxol-5-yl)cyclopropyl]carbonyl}amino)-7-methoxy-3,4-dihydro-2H-chromen-2-yl]benzoic acid] are 280 nM, 290 nM, 102%, 95% and 14%.
With `COc1ccc2c(c1)O[C@@H](c1ccc(OC)c(OC)c1)C[C@H]2NC(=O)C1(c2ccc3c(c2)OC(F)(F)O3)CC1` [Example 3, 1-(2,2-difluoro-1,3-benzodioxol-5-yl)-N-[(2R,4R)-2-(3,4-dimethoxyphenyl)-7-methoxy-3,4-dihydro-2H-chromen-4-yl]cyclopropanecarboxamide], in data set [1], the EC50 turned out to be 390 nM and the Emax amounted to 135%. Also, in data set [2], the “CYP3A4 Hepatocytes mRNA %” value is 49.3%.
As to `O=C(O)c1cccc([C@H]2C[C@@H](NC(=O)C3(c4ccc5c(c4)OC(F)(F)O5)CC3)c3ccccc3O2)c1` [Example 9, 3-[(2R,4R)-4-({[1-(2,2-difluoro-1,3-benzodioxol-5-yl)cyclopropyl]carbonyl}amino)-3,4-dihydro-2H-chromen-2-yl]benzoic acid], in data set [1], the EC50 came to 420 nM and the Emax worked out at 84%. Moreover, in data set [2], the “CYP3A4 Hepatocytes mRNA %” value turned out to be 16.1%. In data set [3], the EC50 is 160 nM and the Emax amounted to 92%.
For the molecule `Cc1ccc2c(c1)[C@H](NC(=O)C1(c3ccc4c(c3)OC(F)(F)O4)CC1)C[C@H](c1cccc(C(=O)O)c1)O2` [Example 14, 3-[(2R,4R)-4-({[1-(2,2-difluoro-1,3-benzodioxol-5-yl)cyclopropyl]carbonyl}amino)-6-methyl-3,4-dihydro-2H-chromen-2-yl]benzoic acid], in data set [1], the EC50 is 850 nM and the Emax came out at 78%. In data set [2], the “CYP3A4 Hepatocytes mRNA %” value came out at 3.54%.
With `COc1ccc2c(c1)[C@H](NC(=O)C1(c3ccc4c(c3)OC(F)(F)O4)CC1)C[C@H](c1cccc(C(=O)O)c1)O2` [Example 19, 3-[(2R,4R)-4-({[1-(2,2-difluoro-1,3-benzodioxol-5-yl)cyclopropyl]carbonyl}amino)-6-methoxy-3,4-dihydro-2H-chromen-2-yl]benzoic acid], the results for the EC50 in data set [1] and in data set [3] were 630 nM and 210 nM, respectively. The Emax in data set [1] is 103%; in data set [3], 111%. Also, the “CYP3A4 Hepatocytes mRNA %” value in data set [2] is recorded as 9.38%.
For `O=C(O)c1cccc([C@H]2C[C@@H](NC(=O)C3(c4ccc5c(c4)OC(F)(F)O5)CC3)c3ccc(F)cc3O2)c1` [Example 38, 3-[(2R,4R)-4-({[1-(2,2-difluoro-1,3-benzodioxol-5-yl)cyclopropyl]carbonyl}amino)-7-fluoro-3,4-dihydro-2H-chromen-2-yl]benzoic acid], in data set [2], the “CYP3A4 Hepatocytes mRNA %” value worked out at 40.2%.
For the molecule `O=C(O)c1cccc([C@H]2C[C@@H](NC(=O)C3(c4ccc5c(c4)OC(F)(F)O5)CC3)c3ccc(C(F)(F)F)cc3O2)c1` [Example 108, 3-[(2R,4R)-4-({[1-(2,2-difluoro-1,3-benzodioxol-5-yl)cyclopropyl]carbonyl}amino)-7-(trifluoromethyl)-3,4-dihydro-2H-chromen-2-yl]benzoic acid], the EC50 was determined as 340 nM in data set [1] and 86 nM in data set [3]. In addition, the Emax in data set [1] was 115%; in data set [3], 96%. Besides, in data set [2], the “CYP3A4 Hepatocytes mRNA %” value was 39.6%.
On the same counts, the results for `O=C(O)C1CCCC([C@H]2C[C@@H](NC(=O)C3(c4ccc5c(c4)OC(F)(F)O5)CC3)c3ccc(C(F)(F)F)cc3O2)C1` (stereo partly drawn) [Example 109, 3-[(2R,4R)-4-({[1-(2,2-difluoro-1,3-benzodioxol-5-yl)cyclopropyl]carbonyl}amino)-7-(trifluoromethyl)-3,4-dihydro-2H-chromen-2-yl]cyclohexanecarboxylic acid] are 450 nM, 55 nM, 94%, 70% and 42.2%.
On the same counts, the results for `COc1ccc2c(c1)O[C@@H](c1ccc(C(=O)O)cc1)C[C@H]2NC(=O)C1(c2ccc3c(c2)OC(F)(F)O3)CC1` [Example 111, 4-[(2R,4R)-4-({[1-(2,2-difluoro-1,3-benzodioxol-5-yl)cyclopropyl]carbonyl}amino)-7-methoxy-3,4-dihydro-2H-chromen-2-yl]benzoic acid] are 44 nM, 5 nM, 113%, 90% and −0.105%.
As to `O=C(O)c1ccc([C@H]2C[C@@H](NC(=O)C3(c4ccc5c(c4)OC(F)(F)O5)CC3)c3ccc(OC(F)F)cc3O2)cc1` [Example 122, 4-[(2R,4R)-4-({[1-(2,2-difluoro-1,3-benzodioxol-5-yl)cyclopropyl]carbonyl}amino)-7-(difluoromethoxy)-3,4-dihydro-2H-chromen-2-yl]benzoic acid], in data set [1], the response was half-maximal at 26 nM (EC50) and the Emax amounted to 122%. Moreover, the “CYP3A4 Hepatocytes mRNA %” value in data set [2] was 10.6%. Besides, in data set [3], the EC50 was determined as 4 nM and the Emax came out at 87%.
`COc1ccc2c(c1)O[C@@H](c1ccc(C(=O)O)cc1F)C[C@H]2NC(=O)C1(c2ccc3c(c2)OC(F)(F)O3)CC1` [Example 146, 4-[(2R,4R)-4-({[1-(2,2-difluoro-1,3-benzodioxol-5-yl)cyclopropyl]carbonyl}amino)-7-methoxy-3,4-dihydro-2H-chromen-2-yl]-3-fluorobenzoic acid]: in data set [1], the EC50 worked out at 30 nM and the Emax was determined as 129%. Further, the “CYP3A4 Hepatocytes mRNA %” value in data set [2] came out at 11.6%. For the same molecule, in data set [3], the EC50 stood at 4 nM and the Emax is 98%.
